Reference: ChEMBL document CHEMBL1152620, “Carbonic anhydrase inhibitors. Diazenylbenzenesulfonamides are potent and selective inhibitors of the tumor-associated isozymes IX and XII over the cytosolic isoforms I and II” (Bioorg Med Chem, 2009)

Assays:
Carbonic anhydrase 9 = Carbonic anhydrase 9 (Homo sapiens, UniProt Q16790); assay type: cell-based, Sf9
Description: Inhibition of human recombinant CA9 catalytic domain expressed in Sf9 cells by stopped flow CO2 hydration assay

Carbonic anhydrase 12 = Carbonic anhydrase 12 (Homo sapiens, UniProt O43570); assay: Inhibition of human recombinant CA12 catalytic domain expressed in Sf9 cells by stopped flow CO2 hydration assay
[1] = Solubility in water; assay type: physicochemical; details: buffer

Sequence of Carbonic anhydrase 12 (O43570 whole entry, the tested form may be a part): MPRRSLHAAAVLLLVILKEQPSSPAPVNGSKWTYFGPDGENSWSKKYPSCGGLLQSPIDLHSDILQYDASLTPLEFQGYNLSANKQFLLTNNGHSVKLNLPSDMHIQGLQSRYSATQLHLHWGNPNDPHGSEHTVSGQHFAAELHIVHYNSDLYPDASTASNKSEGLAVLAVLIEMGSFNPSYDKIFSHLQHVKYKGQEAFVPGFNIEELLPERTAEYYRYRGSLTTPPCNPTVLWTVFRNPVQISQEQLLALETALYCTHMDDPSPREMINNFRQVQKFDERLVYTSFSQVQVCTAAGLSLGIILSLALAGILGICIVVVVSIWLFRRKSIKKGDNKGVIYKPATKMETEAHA

| Ki (Carbonic anhydrase 9) [nM] | Ki (Carbonic anhydrase 12) [nM] | Structure (SMILES) | solubility [1] |
| --- | --- | --- | --- |
| 5850 | – | CN(CS(=O)(=O)O)c1ccccc1 [SODIUM(METHYL(PHENYL)AMINO)METHANESULFONATE] | – |
| – | 7.9 | CN(C)c1ccc(/N=N/c2ccc(S(N)(=O)=O)cc2)cc1 | – |
| 63 | – | CN(CS(=O)(=O)O)c1ccc(/N=N/c2cccc(S(N)(=O)=O)c2)cc1 | – |
| 57 | – | NS(=O)(=O)c1cccc(/N=N/c2ccc(NCS(=O)(=O)O)cc2)c1 | – |
| 6.4 | – | CN(C)c1ccc(/N=N/c2cccc(S(N)(=O)=O)c2)cc1 | – |
| 5100 | – | O=S(=O)(O)CNc1ccccc1 [SODIUM PHENYLAMINOMETHANESULFONATE] | – |
| 6.4 | 5 | NS(=O)(=O)c1ccc(/N=N/c2ccc(O)cc2)cc1 | – |
| 5.9 | – | Nc1ccc(/N=N/c2cccc(S(N)(=O)=O)c2)cc1 | – |
| 4.9 | 69.4 | CNc1ccc(/N=N/c2ccc(S(N)(=O)=O)cc2)cc1 | – |
| 5.4 | – | NS(=O)(=O)c1ccc(/N=N/c2ccc(NCS(=O)(=O)[O-])cc2)cc1.[Na+] | Soluble |

| Structure (SMILES) | Ki (Carbonic anhydrase 9) [nM] | Ki (Carbonic anhydrase 12) [nM] | solubility [1] |
| --- | --- | --- | --- |
| NS(=O)(=O)c1cccc(/N=N/c2ccc(O)cc2)c1 | 6.1 | 7.3 | – |
| Nc1ccc(/N=N/c2ccc(S(N)(=O)=O)cc2)cc1 | 6 | – | – |
| CN(CS(=O)(=O)[O-])c1ccc(/N=N/c2ccc(S(N)(=O)=O)cc2)cc1.[Na+] | 3.5 | – | Soluble |
